In patent US12391646B2, “Using adiponectin receptor agonists to treat inflammation and bone diseases in diabetes” (Trustees of Tufts College, priority 2020, dated 2025):

Columns and labels:
Format in all cases: cell-based
[1] = system: RAW 264.7 cells in high glucose medium; assay: Osteoclastogenesis and autophagy of RANKL-treated RAW 264.7 cells in high glucose medium; conditions: high glucose medium
Description: FIG. 20 RAW 264.7 cells were treated with RANKL (100 ng/ml) with or without AdipoRon ([…]) or AdipoAI (5 μM) in low (5 mmol/l) glucose, 20 mmol/l D-mannitol or high (25 mmol/l) glucose medium. qRT-PCR analysis of cathepsin K (A), TRAP (B) and microtubule associated protein 1 light chain 3 (LC3) (C), and mRNA expression were calculated (n≥3). (D) Western blot analysis of LC3A/B protein levels normalized to β-actin. (E) The mean of protein/β-actin ratios normalized to 1.0 (RANKL-AdipoRon-AdipoAI-H group) quantified by densitometry. (F) Autophagosome images obtained with laser confocal microscopy after the RAW 264.7 cells were transfected with a GFP-LC3 plasmid and treated with RANKL and AdipoRon or AdipoAI (scale bar=50 μm). Data are shown as mean±SD. *, P<0.05. **P<0.01. ***P<0.001.
FIG. 21 Autophagy inhibitor reverses AdipoAI-inhibited osteoclastogenesis in high glucose medium. RAW 264.7 cells were treated with RANKL (100 ng/ml) in 2 days and with or without AdipoAI (5 μM) for 24 hours followed by 3-methyladenine (3-MA, 2.5 mM) treatment for another 24 hours in high glucose medium. qRT-PCR analysis of cathepsin K (A), TRAP (B) and LC3 (C) mRNA expression were calculated (n≥3). (D) Western blot analysis of LC3A/B protein levels normalized to β-actin. (E) The mean of protein/β-actin ratios normalized to 1.0 (3-MA-, RANKL-, AdipoAI-group) quantified by densitometry. Data are shown as mean±SD. *, P<0.05. **P<0.01. ***P<0.001.
FIG. 22 AdipoAI-induced autophagy of osteoclasts in high glucose medium via AKT1/mTOR signaling pathway. RAW 264.7 cells were induced with RANKL for 2 days and then treated with or without (5 μM) additional 24 hours after serum starvation for 4 hours. Then, the cells were treated with RANKL, AdipoAI or SC79 (5 μM), an AKT activator, for another 24 hours in high glucose medium. qRT-PCR analysis of mRNA expression of cathepsin K (A), TRAP (B) and LC3 (C) were calculated (n≥3). (D) Representative images show the protein expression levels of AKT, p-AKT, AKT1, p-AKT1, mTOR, p-mTOR, and LC3A/B in osteoclasts. Quantitative analysis of bands is shown in (E-K) (n≥3). Data are shown as mean±SD. *, P<0.05. **P<0.01. ***P<0.001. R: RANKL. A, AI: AdipoAI. SC5: SC79 (5 μM).
RAW 264.7 cells (ATCC, Manassas, VA, USA) were cultured and passaged in DMEM supplemented with 10% (v/v) FBS (Invitrogen, Grand Island, NY, USA) and 1% Penicillin-Streptomycin (Gibco, Gaithersburg, MD, USA). For the induction of osteoclastogenesis, RAW 264.7 cells were cultured 24 in α-MEM supplemented with 10% FBS and 1% Penicillin-Streptomycin in the presence of 100 ng/ml RANKL (Peprotech, Rocky Hill, NJ, USA) for 2 days, and subsequently treated or not with AdipoRon or AdipoAI for another 2 days changing cell culture medium every 2 days. After a total of […] of culture, morphologic examination was performed, as was mRNA and protein expression. To simulate high glucose environment in vitro, α-MEM was supplemented with D-glucose to 25 mmol/l (high glucose) or 5 mmol/l (physiological glucose). 20 mmol/l D-mannitol served as an osmotic control.
Total RNA was isolated from cell cultures and gingival soft tissues using TriZol reagent (Life Technologies, Carlsbad, CA, USA) according to the manufacturer's instructions^24. Reverse transcription was performed using the PrimeScript RT Master Mix (Takara Bio, Otsu, Japan) and real-time-qPCR analyses were performed using SYBR-Green Real-Time PCR Master Mix (Takara Bio, Otsu, Japan) as described earlier^27.
Total cellular extracts were prepared using RIPA Lysis and Extraction Buffer containing three Protease Inhibitors (Santa Cruz, Dallas, TX, USA). Western blot analyses were performed as previously described 24. Antibodies for β-actin (1:2000) and GAPDH (1:5000), LC3A/B (1:1000), AKT1 (1:1000), p-AKT1 (1:1000), AKT (1:1000), p-AKT (1:1000), mTOR (1:1000), p-mTOR (1:1000) were purchased from Abcam and Cell Signaling Technology, respectively. SC79, an AKT activator was purchased from Sigma Aldrich. […]

[2] = system: LPS-stimulated RAW 264.7 macrophages; assay: qPCR of cytokine mRNA in LPS-stimulated RAW 264.7 macrophages; conditions: compounds at 5 μM vs APR at 20 μM, 24 h pretreatment, then LPS 100 ng/mL 6 h
Description: (§1) FIG. 1 Characterization of anti-inflammatory properties of APR-like compounds. (a) Raw264.7 cells were pretreated with APR (20 μM) or new compounds 1 to 10 (5 μM) for 24 h followed by incubation with LPS (100 ng/mL) for an additional 6 h. IL-6 and IL-1β mRNA expression levels were evaluated by qPCR and normalized with GAPDH mRNA level. (b) Raw264.7 cells were pretreated with different doses of AdipoAI for 24 h followed by incubation with LPS (100 ng/mL) for additional 6 h to evaluate dose-dependency of AdipoAI in inhibiting IL-6 and IL-1β mRNA expression levels by qRT-PCR and normalized with GAPDH mRNA level. (c) Evaluation of cytotoxicity of APR, AdipoAI and compound 5 by CCK8 assay in Raw264.7 cells treated for 24 hours. (d) BMMs were pretreated with APR (20 μM), AdipoAI (5 μM) or compound 5 (5 μM) for 24 h followed by incubation with LPS (100 ng/ml) for additional 6 h for the measurement of IL-6 and IL-1β mRNA expression levels by qRT-PCR and normalized with GAPDH mRNA level. Data were expressed as the mean±SEM at five biological independent experiments. One-way ANOVA test for multiple-group comparisons, *P<0.05, significant differences between each indicated group.
RAW 264.7 macrophage cell line was purchased from ATCC (Manassas, VA, USA) and maintained in DMEM (Gibco, Life Technologies, Carlsbad, CA, USA) supplemented with 10% (v.v-1) FBS (Gibco, Life Technologies) and 1% (v.v-1) penicillin/streptomycin (Gibco, Life Technologies). The cells were routinely cultured in an incubator at 37° C. in a humidified atmosphere of 5% CO2.
Total RNA of cells was extracted using Quick-RNA Miniprep Kit (ZYMO Research, Irvine, CA, USA) and total RNA from mouse tissues was prepared with TriZol reagent (Life Technologies) according to the manufacturer's instructions followed by qRT-PCR assays as described previously (L. Zhang et al., 2014). 1 μg of total RNA was used for reverse transcription using the M-MLV Reverse Transcriptase (Thermo Scientific, Waltham, MA, USA) according to the manufacturer's protocol using PowerUp SYBR Green Master Mix (Thermo Scientific) on a Bio-Rad iQ5 thermal cycler (Bio-Rad Laboratories, Hercules, CA, USA). Differences in expression were evaluated by the comparative cycle threshold method using GAPDH or β-actin as a control. The primer sequences used for the qRT-PCR experiments are listed in supplemental Table 1.
Macrophages were seeded at a density of 5×10^5 cells/well in 12-well plates. After overnight incubation, the cells were transfected for 24 h with siRNAs targeting specific genes or scrambled control siRNAs using HiPerFect Transfection Reagent (Qiagen, Hilden, Germany) according to the manufacturer's guidelines. Gene silencing efficiency was monitored by qPCR or Western blot analysis. The siRNA duplexes used in this study were chemically synthesized by Thermo Scientific.

Raw264.7 cells = assay: CCK-8 cytotoxicity assay, 24 hours; conditions: at 40 μM or lower concentrations
Description: as §1
Raw264.7 cells were seeded at 2×10^3 cells/well in 96-well plates for 16 hours and then serum-starved for 6 hours. Cells were maintained in DMEM in the presence of different concentrations of APR (AdipoGen Life Sciences, San Diego, CA, USA) and compounds for 24 hours. […] The detailed group assignment is shown in the individual figure legends.

Cn1cnc(N)c2ncnc1-2 [3-methyladenine, reference compound]
LC3 mRNA and LC3II protein induced by AdipoAI ([1]; 3-MA 2.5 mM 24 hours): decreased the mRNA expression of LC3 and protein expression of LC3II induced by AdipoAI | AdipoAI-inhibited mRNA expression of Cathepsin K and TRAP ([1]; 3-MA 2.5 mM): reversed the AdipoAI-inhibited mRNA expression of osteoclastogenesis markers Cathepsin K and TRAP

CC(c1ccccc1)N1CCC(NC(=O)COc2ccc(C(=O)c3ccc(Cl)cc3)cc2)CC1 (stereo not drawn) [Compound 5]
inhibition of IL-6 and IL1-β mRNA expression [2]: stronger inhibitory effects than APR | cytotoxic effects (CCK-8) (Raw264.7 cells): neither of the 3 small molecules mediated significant cytotoxic effects

CCOC(=O)C1=C(N)Oc2ccc(Cl)cc2C1C(C#N)C(=O)OCC (stereo not drawn) [SC79, reference compound]
LC3II, AKT expression and AKT, AKT1, mTOR phosphorylation changes induced by AdipoAI ([1]; SC79 5 μM): reverses the promoted expression of LC3II | LC3 mRNA and osteoclastogenic marker mRNA under AdipoAI ([1]; SC79 5 μM): reverses the upregulated expression of LC3 mRNA and downregulated expression of osteoclastogenic markers
